Measured values reported in patent US20150094225A1, “METHOD OF OBTAINING INFORMATION FOR IDENTIFYING TUMOR CELL UNDERGOING EPITHELIAL-MESENCHYMAL TRANSITION IN SAMPLE, METHOD OF IDENTIFYING TUMOR CELL UNDERGOING EPITHELIAL-MESENCHYMAL TRANSITION IN SAMPLE, METHOD OF DIAGNOSING SUBJECT HAVING TUMOR CELL UNDERGOING EPITHELIAL-MESENCHYMAL TRANSITION AND …” (Samsung Electronics Co., Ltd., priority 2013, published 2015).
Where two headings read alike, the source gives them in different places.

Columns and labels:
Assay type in all cases: cell-based
[1] = test system: breast cancer cells (MCF7); assay: RT-PCR of EMT-induced MCF7 cells cultured in medium including TSA, SB or CoCl2; settings: for expression of EpCAM / expression of Twist / expression of snail: 0.5 μM TSA or 2.5 mM SB
[2] = test system: breast cancer cells (MCF7); assay: western blotting of EMT-induced MCF7 cells cultured in TSA- or CoCl2-containing medium
[3] = test system: prostate cancer cells (Du145); assay: western blotting and RT-PCR of EMT-induced DU145 cells cultured in medium including TSA, SB or CoCl2
[4] = test system: lung cancer cells (NCI-1650); assay: RT-PCR of EMT-induced NCI-1650 cells cultured in TSA-containing medium; settings: NCI-1650, RT-PCR, 0.5 μM TSA, one day
[5] = test system: lung cancer cells (NCI-1650); assay: western blotting of EMT-induced NCI-1650 cells cultured in TSA-containing medium; settings: NCI-1650, western blotting, 0.5 μM TSA, one day
[6] = MCF7, RT-PCR, 0.5 μM TSA, 2.5 mM SB or 400 μM CoCl2, one day
[7] = DU145, western blotting/RT-PCR, 0.5 μM TSA, 2.5 mM SB or 400 μM CoCl2, one day
[8] = MCF7, RT-PCR, 0.5 μM TSA or 400 μM CoCl2, one day
[9] = MCF7, western blotting (FIG. 15: western/RT-PCR not told apart), 0.5 μM TSA or 400 μM CoCl2, one day

## [Cl-].[Cl-].[Co+2] [CoCl2]
[1]
  expression of ACACA: decreased
  expression of ACOT1: decreased
  expression of FASN: decreased
  expression of PPARγ: decreased
  expression of PTPLB: decreased
  expression of SCD1: increased
[2]
  expression of HIF-1α: gradually increased
  expression of N-cadherein: gradually increased
  expression of snail: gradually increased
[3]
  expression of ACOT1: decreased
  expression of EpCAM: increased
  expression of PTPLB: decreased
  expression of SCD1: increased
  expression of snail: increased

## CCCC(=O)[O-].[Na+] [SB, sodium butyrate]
[1]; MCF7, RT-PCR, one day
  expression of EpCAM: decreased
  expression of Twist: increased
  expression of snail: increased
[1]; [6]
  expression of ACOT1: decreased
  expression of PTPLB: decreased
[3]; [7]
  expression of ACOT1: decreased
  expression of EpCAM: increased
  expression of PTPLB: decreased
  expression of SCD1: increased
  expression of snail: increased

## CC(/C=C/C(=O)NO)=C\[C@@H](C)C(=O)c1ccc(N(C)C)cc1 [TSA, Trichostatin A]
[1]; [8]
  expression of ACACA: increased
  expression of PPARγ: decreased
  expression of SCD1: increased
[1]; MCF7, RT-PCR, one day
  expression of EpCAM: decreased
  expression of Twist: increased
  expression of snail: increased
[1]; [6]
  expression of ACOT1: decreased
  expression of PTPLB: decreased
[1]; MCF7, RT-PCR, 0.5 μM TSA, one day
  expression of N-cadherin: increased
[2]; [9]
  expression of N-cadherein: gradually increased
  expression of snail: gradually increased
[2]; MCF7, western blotting, 0.5 μM TSA, cultured one day
  expression of E-cadherin: decreased
[4]
  expression of ACOT1: decreased
  expression of PTPLB: decreased
  expression of SCD1: increased
[5]
  expression of N-cadherein: gradually increased
  expression of Vimentin: gradually increased
  expression of snail: gradually increased
[3]; [7]
  expression of ACOT1: decreased
  expression of EpCAM: increased
  expression of PTPLB: decreased
  expression of SCD1: increased
  expression of snail: increased
